What was measured:
[1] = target: rat α3β2 nAChR (Rattus norvegicus, UniProt P04757+P12390); assay type: cell-based
[2] = target: human α3β2 nAChR (Homo sapiens, UniProt P17787+P32297); assay type: cell-based
[3] = system: Kunming mice; conditions: mouse, in vivo, sc

Chain of rat α3β2 nAChR (P04757 26-499 limits assumed): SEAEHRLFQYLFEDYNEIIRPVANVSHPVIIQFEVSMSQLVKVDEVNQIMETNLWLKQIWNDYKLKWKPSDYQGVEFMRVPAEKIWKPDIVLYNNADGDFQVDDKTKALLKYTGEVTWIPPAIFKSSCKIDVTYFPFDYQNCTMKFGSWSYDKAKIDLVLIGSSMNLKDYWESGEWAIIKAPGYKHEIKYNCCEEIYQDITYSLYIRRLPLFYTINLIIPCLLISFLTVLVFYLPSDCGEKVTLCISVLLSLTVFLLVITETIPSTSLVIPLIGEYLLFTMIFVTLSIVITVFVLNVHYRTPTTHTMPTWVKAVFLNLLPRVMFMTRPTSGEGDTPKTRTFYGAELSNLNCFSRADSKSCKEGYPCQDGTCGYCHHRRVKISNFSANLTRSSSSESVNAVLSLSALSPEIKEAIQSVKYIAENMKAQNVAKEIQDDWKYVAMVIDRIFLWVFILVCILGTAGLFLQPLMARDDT
Chain of rat α3β2 nAChR (P12390 25-500 limits assumed): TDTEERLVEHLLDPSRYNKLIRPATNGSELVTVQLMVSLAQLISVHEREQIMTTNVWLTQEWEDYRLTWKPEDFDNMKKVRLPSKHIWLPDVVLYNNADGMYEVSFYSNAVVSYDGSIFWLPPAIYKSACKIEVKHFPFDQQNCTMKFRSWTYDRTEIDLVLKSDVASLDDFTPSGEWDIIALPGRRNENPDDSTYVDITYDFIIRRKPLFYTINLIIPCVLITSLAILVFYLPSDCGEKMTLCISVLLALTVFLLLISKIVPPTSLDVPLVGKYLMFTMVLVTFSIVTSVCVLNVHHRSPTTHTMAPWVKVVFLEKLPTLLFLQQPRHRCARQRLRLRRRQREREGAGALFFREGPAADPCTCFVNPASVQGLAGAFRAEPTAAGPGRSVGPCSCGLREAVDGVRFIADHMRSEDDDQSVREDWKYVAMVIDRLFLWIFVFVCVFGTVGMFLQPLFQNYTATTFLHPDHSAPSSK
Chain of human α3β2 nAChR (P32297 32-505 limits assumed): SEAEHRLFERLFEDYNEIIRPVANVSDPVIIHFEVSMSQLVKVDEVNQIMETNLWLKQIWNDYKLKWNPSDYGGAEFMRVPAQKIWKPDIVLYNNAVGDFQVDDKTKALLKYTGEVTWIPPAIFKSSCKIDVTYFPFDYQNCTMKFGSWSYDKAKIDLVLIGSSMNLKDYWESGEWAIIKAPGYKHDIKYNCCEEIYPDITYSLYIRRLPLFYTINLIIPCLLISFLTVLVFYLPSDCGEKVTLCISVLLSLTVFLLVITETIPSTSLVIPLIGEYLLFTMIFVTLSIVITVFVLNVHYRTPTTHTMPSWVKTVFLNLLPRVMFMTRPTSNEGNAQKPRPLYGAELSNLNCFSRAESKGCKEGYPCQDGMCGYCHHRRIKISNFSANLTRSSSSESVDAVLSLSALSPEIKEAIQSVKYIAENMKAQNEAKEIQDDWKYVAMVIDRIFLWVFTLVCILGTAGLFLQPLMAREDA
Chain of human α3β2 nAChR (P17787 26-502 limits assumed): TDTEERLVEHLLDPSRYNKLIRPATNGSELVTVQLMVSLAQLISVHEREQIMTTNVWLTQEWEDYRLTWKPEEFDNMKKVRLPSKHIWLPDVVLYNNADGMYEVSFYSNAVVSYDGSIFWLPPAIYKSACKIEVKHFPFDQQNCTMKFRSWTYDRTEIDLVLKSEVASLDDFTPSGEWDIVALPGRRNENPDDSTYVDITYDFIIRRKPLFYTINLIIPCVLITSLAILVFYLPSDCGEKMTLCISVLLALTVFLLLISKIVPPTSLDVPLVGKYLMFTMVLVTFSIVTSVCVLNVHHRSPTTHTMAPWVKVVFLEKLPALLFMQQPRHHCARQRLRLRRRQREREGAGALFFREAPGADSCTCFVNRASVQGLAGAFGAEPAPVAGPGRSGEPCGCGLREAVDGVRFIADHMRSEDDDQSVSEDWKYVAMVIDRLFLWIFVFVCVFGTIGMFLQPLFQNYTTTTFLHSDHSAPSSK

SMILES | loss of potency versus native LvIA [1] | loss of potency versus native LvIA [2] | latency to thermal stimulus [3]
CC[C@H](C)[C@@H]1NC(=O)[C@H](CCC(=O)O)NC(=O)[C@@H]2CCCN2C(=O)[C@H](Cc2c[nH]cn2)NC(=O)[C@H](CC(=O)O)NC(=O)[C@H](C(C)C)NC(=O)[C@H](CC(N)=O)NC(=O)[C@@H]2CSSC[C@H](NC(=O)CNC(=O)[C@@H](N)CCSC)C(=O)N[C@@H](CSSC[C@@H](C(=O)O)NC1=O)C(=O)N[C@@H](CO)C(=O)N[C@@H](Cc1c[nH]cn1)C(=O)N1CCC[C@H]1C(=O)N[C@@H](C)C(=O)N2 [rLvIA] | 18.5 fold | 2.7 fold | –
CN1CC[C@]23c4c5ccc(O)c4O[C@H]2[C@@H](O)C=C[C@H]3[C@H]1C5 [Morphine] | – | – | highest latency
